The results in this text go back to PubChem BioAssay (NCI).

As a reminder, the GI50 is the concentration at which growth is held to half of that of the control. In general, TGI refers to the concentration giving total growth inhibition.

Where “and” joins values, the source holds several entries; their conditions need not be identical. Identical values can stand only once.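 Compound exposure: 48 hours, 5 concentrations, 96-well plates. GI50 is the concentration that inhibits growth by half. At the TGI there is no net growth.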

In the first experiment the test system is MDA-MB-435. In words: DTP human tumour cell line panel, 48 h.
`C[C@@H]1CC[C@H]2C(COCC3=C(C(F)(F)F)O[C@@H]4O[C@@]5(C)CC[C@H]6[C@H](C)CC[C@@H]3[C@@]46OO5)=C(C(F)(F)F)O[C@@H]3O[C@@]4(C)CC[C@@H]1[C@]32OO4`: the GI50 was less than 0.0108 µM and the TGI was more than 100 µM.

A further experiment has as its system SN12C renal. In words: DTP human tumour cell line panel, 48 h.
Consider `C[C@@H]1CC[C@H]2C(COCC3=C(C(F)(F)F)O[C@@H]4O[C@@]5(C)CC[C@H]6[C@H](C)CC[C@@H]3[C@@]46OO5)=C(C(F)(F)F)O[C@@H]3O[C@@]4(C)CC[C@@H]1[C@]32OO4`, for which the GI50 was 0.0439 µM and the TGI was more than 100 µM.
Compound `CCOc1ccc(NC(=O)CC2Sc3ccccc3NC2=O)cc1` (stereo not given) yielded a TGI of more than 100 µM.
The same measure, in the same setting: in the case of `Cn1cc(NC(=O)c2cc(NC(=O)CCCCCCCCCCC(=O)Nc3cc(C(=O)Nc4cc(C(=O)NCCC(=N)N)n(C)c4)n(C)c3)cn2C)cc1C(=O)NCCC(=N)N` it was more than 100 µM.
With `C1COCCN1.C1COCCN1.N.N.[Cl-].[Pt+2]`, the GI50 was more than 100 µM and the TGI is more than 100 µM.
The compound `Cc1ccccc1C(C#N)C(=O)C(=O)Nc1nc([N+](=O)[O-])cs1` (stereo not given) had a TGI of more than 100 µM.
Same read-out and setting: then `COC(=O)C(c1[nH]nc2ccccc12)C(C(=O)OC)c1[nH]nc2ccccc12` (stereo not given), with more than 100 µM; and `C#CCNC(=O)NC(CCCNC(=O)OCc1ccccc1)C(=O)OCc1ccccc1` (stereo not given), with more than 100 µM.
`O=c1[nH]c2ccccc2cc1C(Cl)=C(Cl)Cl` had a TGI of more than 100 µM.
Take `O=[N+]([O-])[C@@H]1C2C=CC(C2)[C@H]1Cl` (stereo not given in full): the TGI is more than 100 µM.
On the same count and under the same terms, in the case of `COC(=O)C(C#N)=C1c2ccccc2Oc2ccccc21` it was more than 100 µM.
As for `COc1c(C2CC(=O)Nc3c2cnn3Cc2ccco2)cc2c(c1OC)OCO2` (stereo not given), the GI50 was 1.94 µM and the TGI was more than 100 µM.
For `N#CC1(c2nc3ccccc3o2)C(=O)C(=O)N(C2C3CC4CC(C3)CC2C4)C(=O)C1=O` (stereo not given), the TGI was more than 100 µM.
Same read-out and setting: then `O=C1NC(c2ccc(O)cc2)C2CCC1C2` (stereo not given), with more than 100 µM; and `CCOC(=O)C1(CC)CCCCC(=O)N1` (stereo not given), with more than 100 µM; and `C=CC1=CSNN1`, with more than 100 µM.
`O=C(C#Cc1c[nH]c(=O)[nH]c1=O)c1ccccc1Cl` had a total growth inhibition concentration (TGI) of 27.5 µM.
Same read-out and setting: in the case of `CC(=O)OC1=C2CC3(C)OC(=O)CC(C)(C)C3=CC=C2C=C(C(C)C)C1=O` (stereo not given) it was 2 µM.
As to `CCCCCCCCCCCCCCCC(=O)NCC(COP(=O)([O-])OCC[N+](C)(C)C)OCC` (stereo not given), the total growth inhibition concentration (TGI) was 25 µM.
Turning to `COc1ccc(C(=O)Nc2ncc(Cc3ccc(Cl)cc3)s2)cc1`, the GI50 was 0.0946 µM and the TGI is more than 100 µM.
Consider `O=C1NC2(CCCC2)C(=O)C12CCCC2`, for which the TGI is more than 100 µM.
Still for that read-out and setting: in the case of `O=C1CCCN(c2ccccc2)N1` it was more than 100 µM.
On the same count and under the same terms, in the case of `CN(C)/C(=N/C(=S)Nc1ccccc1)SCc1ccccc1` it was more than 100 µM; in that of `CCOC(=O)C1=C(C)Nc2ccccc2S1`, more than 100 µM.
As to `Nc1n[nH]c2ccc([C@@H]3Nc4ccc5[nH]ncc5c4[C@H]4[C@H]5CCC(C5)[C@H]43)cc12`, the GI50 is 0.618 µM and the TGI was more than 89.7 µM.
The compound `CCOC(=O)CC1=Nc2ccccc2SC1` displayed a TGI of more than 100 µM.
The same measure, in the same setting: then `C=CCSC[C@H](NC(=O)COc1ccccc1)C(=O)NC(C(=O)OCc1ccc([N+](=O)[O-])cc1)=C(C)C`, with more than 100 µM.

The next experiment deals with IGROV1 ovarian. In words: DTP human tumour cell line panel, 48 h.
In turn, `C[C@@H]1CC[C@H]2C(COCC3=C(C(F)(F)F)O[C@@H]4O[C@@]5(C)CC[C@H]6[C@H](C)CC[C@@H]3[C@@]46OO5)=C(C(F)(F)F)O[C@@H]3O[C@@]4(C)CC[C@@H]1[C@]32OO4` came in with a TGI of more than 100 µM.
Same read-out and setting: then `CCOc1ccc(NC(=O)CC2Sc3ccccc3NC2=O)cc1` (stereo not given), with more than 100 µM; and `Cn1cc(NC(=O)c2cc(NC(=O)CCCCCCCCCCC(=O)Nc3cc(C(=O)Nc4cc(C(=O)NCCC(=N)N)n(C)c4)n(C)c3)cn2C)cc1C(=O)NCCC(=N)N`, with more than 100 µM.
For the compound `C1COCCN1.C1COCCN1.N.N.[Cl-].[Pt+2]`, the GI50 is more than 100 µM and the TGI is more than 100 µM.
In the case of `Cc1ccccc1C(C#N)C(=O)C(=O)Nc1nc([N+](=O)[O-])cs1` (stereo not given), the TGI was more than 100 µM.
Consider `COC(=O)C(c1[nH]nc2ccccc12)C(C(=O)OC)c1[nH]nc2ccccc12` (stereo not given), for which the TGI was more than 100 µM.
On the same count and under the same terms, in the case of `C#CCNC(=O)NC(CCCNC(=O)OCc1ccccc1)C(=O)OCc1ccccc1` (stereo not given) it was more than 100 µM.
For `COc1ccc2cc1Oc1ccc(cc1)C[C@H]1c3cc(c(OC)cc3CCN1C)Oc1c(OC)c(OC)cc3c1[C@H](C2)N(C)CC3`, the GI50 is 14.5 µM; the TGI was 19.6 µM and 27.8 µM and > 100 µM.
`O=c1[nH]c2ccccc2cc1C(Cl)=C(Cl)Cl` registered a TGI of more than 100 µM.
Same read-out and setting: in the case of `O=[N+]([O-])[C@@H]1C2C=CC(C2)[C@H]1Cl` (stereo not given in full) it was more than 100 µM; in that of `COC(=O)C(C#N)=C1c2ccccc2Oc2ccccc21`, more than 100 µM.
`COc1c(C2CC(=O)Nc3c2cnn3Cc2ccco2)cc2c(c1OC)OCO2` (stereo not given): the GI50 was 1.73 µM and the TGI is more than 100 µM.
As for `N#CC1(c2nc3ccccc3o2)C(=O)C(=O)N(C2C3CC4CC(C3)CC2C4)C(=O)C1=O` (stereo not given), the TGI is more than 100 µM.
Regarding `O=C1NC(c2ccc(O)cc2)C2CCC1C2` (stereo not given), the TGI was more than 100 µM.
`CCOC(=O)C1(CC)CCCCC(=O)N1` (stereo not given): the TGI is more than 100 µM.
Same read-out and setting: in the case of `C=CC1=CSNN1` it was more than 100 µM; in that of `O=C(C#Cc1c[nH]c(=O)[nH]c1=O)c1ccccc1Cl`, 35 µM.
In turn, `CC(=O)OC1=C2CC3(C)OC(=O)CC(C)(C)C3=CC=C2C=C(C(C)C)C1=O` (stereo not given) registered a TGI of 2.46 µM.
Compound `CCCCCCCCCCCCCCCC(=O)NCC(COP(=O)([O-])OCC[N+](C)(C)C)OCC` (stereo not given) yielded a TGI of 16 µM.
Take `COc1ccc(C(=O)Nc2ncc(Cc3ccc(Cl)cc3)s2)cc1`: the GI50 was 0.0825 µM and the TGI was more than 100 µM.
As to `O=C1NC2(CCCC2)C(=O)C12CCCC2`, the TGI was more than 100 µM.
Same read-out and setting: then `O=C1CCCN(c2ccccc2)N1`, with more than 100 µM; and `CN(C)/C(=N/C(=S)Nc1ccccc1)SCc1ccccc1`, with more than 100 µM.
Regarding `CCOC(=O)C1=C(C)Nc2ccccc2S1`, the total growth inhibition concentration (TGI) is more than 100 µM.
With `Nc1n[nH]c2ccc([C@@H]3Nc4ccc5[nH]ncc5c4[C@H]4[C@H]5CCC(C5)[C@H]43)cc12`, the GI50 is 0.513 µM and the TGI was more than 51.6 µM.
For the compound `CCOC(=O)CC1=Nc2ccccc2SC1`, the TGI was more than 100 µM.
`C=CCSC[C@H](NC(=O)COc1ccccc1)C(=O)NC(C(=O)OCc1ccc([N+](=O)[O-])cc1)=C(C)C` showed a TGI of more than 100 µM.
